What all share (assay type): biochemical
Experiment [1] has as its target T1, drSLC38A9 (drSLC38A9^71-549) (Danio rerio, UniProt Q08BA4, N227Q/N235Q/N252Q/N263Q).
T1 construct: gene slc38a9; residues 71-549 (N-plug kept); N-terminal His8-thrombin tag removed; Sf-9; liposomes; the printed 5A DNA also starts at residue 71
T1 sequence (Q08BA4 71-549 N227Q/N235Q/N252Q/N263Q): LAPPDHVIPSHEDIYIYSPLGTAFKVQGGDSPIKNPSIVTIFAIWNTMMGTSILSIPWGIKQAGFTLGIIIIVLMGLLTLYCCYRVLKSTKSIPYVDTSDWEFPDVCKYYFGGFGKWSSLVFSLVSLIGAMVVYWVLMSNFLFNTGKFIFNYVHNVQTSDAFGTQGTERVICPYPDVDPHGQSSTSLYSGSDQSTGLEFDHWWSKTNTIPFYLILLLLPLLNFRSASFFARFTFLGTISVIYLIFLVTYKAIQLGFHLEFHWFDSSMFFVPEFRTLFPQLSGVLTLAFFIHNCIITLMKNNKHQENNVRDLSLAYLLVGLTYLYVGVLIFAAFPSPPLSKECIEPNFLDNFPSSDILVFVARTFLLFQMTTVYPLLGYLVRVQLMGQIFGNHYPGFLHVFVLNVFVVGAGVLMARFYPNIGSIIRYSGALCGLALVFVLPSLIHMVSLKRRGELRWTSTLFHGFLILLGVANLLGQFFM
The experiment can be described thus: [3H]arginine uptake in proteoliposomes, filtration, […] min. The following applies: outside pH 7.4, inside pH 5.0, room temperature; 0.5 uM labelled compound.

The target of experiment [2] is T2, drSLC38A9 (drSLC38A9^71-549) (Danio rerio, UniProt Q08BA4, P79A/S80A/H81A/E82A/Y85A/N227Q/N235Q/N252Q/N263Q).
T2 construct: gene slc38a9; residues 71-549 (N-plug kept); N-terminal His8-thrombin tag removed; Sf-9; liposomes; the printed 5A DNA also starts at residue 71
T2 sequence (Q08BA4 71-549 P79A/S80A/H81A/E82A/Y85A/N227Q/N235Q/N252Q/N263Q): T1 sequence (Q08BA4 71-549 N227Q/N235Q/N252Q/N263Q) with P9A, S10A, H11A, E12A, Y15A
The experiment in a line: [3H]leucine uptake in proteoliposomes, filtration. The note with it: 0.5 uM labelled compound, pH 5.0 assay buffer, room temperature; with or without 200 uM arginine.

In experiment [3] the target is T3, drSLC38A9^97-549 (N-terminal deletion, without N-plug) (Danio rerio, UniProt Q08BA4, N227Q/N235Q/N252Q/N263Q).
T3 construct: gene slc38a9; residues 97-549 (N-plug deleted); N-terminal His8-thrombin tag removed; Sf-9; liposomes
T3 sequence (Q08BA4 97-549 N227Q/N235Q/N252Q/N263Q): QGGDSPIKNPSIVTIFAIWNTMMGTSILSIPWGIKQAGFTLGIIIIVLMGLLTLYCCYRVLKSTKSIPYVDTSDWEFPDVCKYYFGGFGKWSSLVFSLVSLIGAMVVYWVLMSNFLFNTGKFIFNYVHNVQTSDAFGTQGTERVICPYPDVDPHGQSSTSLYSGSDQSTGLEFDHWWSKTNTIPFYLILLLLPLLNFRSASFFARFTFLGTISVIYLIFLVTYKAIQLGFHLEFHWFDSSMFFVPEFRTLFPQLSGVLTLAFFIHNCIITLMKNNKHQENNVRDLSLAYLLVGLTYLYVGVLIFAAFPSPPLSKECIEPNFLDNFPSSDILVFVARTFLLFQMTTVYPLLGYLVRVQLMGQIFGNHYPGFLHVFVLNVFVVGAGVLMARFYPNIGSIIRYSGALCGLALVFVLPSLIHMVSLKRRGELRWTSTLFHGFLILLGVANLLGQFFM
The experiment in a line: [3H]leucine uptake in proteoliposomes, filtration. The note with it: 0.5 uM labelled compound, pH 5.0 assay buffer, room temperature; with or without 200 uM arginine.

Changes are numbered by the printed parent chain.

On to `N=C(N)NCCC[C@H](N)C(=O)O` [arginine], for which the “[3H]arginine uptake in proteoliposomes, filtration, 5 min” value in experiment [1] is “the construct studied structurally here and the wild-type drSLC38A9 transport arginine with similar rates”. Take `CC(C)C[C@H](N)C(=O)O` [leucine]: the “[3H]leucine uptake in proteoliposomes, filtration” value in experiment [2] and in experiment [3] was “The mutant proteins show similar transport capacity for leucine regardless of whether arginine was added” throughout.
